Source: patent US4238473A, “Artificial oligosaccharide antigenic determinants” (priority 1975, dated 1980)
Values belong to the compound of their own block, whether it stands above or below them.

Experiments:
[1] = tested on: antibodies raised to this conjugate (antigen 12); assay: Hapten inhibition of precipitation of anti-12 sera with (β-D-gal-O(CH2)8 CONH)23 -HSA; assay type: binding, rabbit; conditions: (β-D-gal-O(CH2)8 CONH)23 -HSA as the precipitating antigen; for IC50: read-out: concentration giving 50% inhibition of precipitation
antisera raised to 13 = assay: Hapten inhibition of precipitation between 13 and antisera raised to 13; assay type: binding, rabbit
Procedure: (§1) This antigen was prepared from the hydrazide derivative of compound 2 using the acyl azide coupling method described in example XII. […] Proof of the hapten specific nature of the response comes from hapten specific inhibition of precipitation between 13 and antisera raised to 13.

[2] = tested on: antibodies raised to this conjugate (antigen 12); assay type: binding, rabbit; conditions: 50 μl of crude sera raised to antigen 12
From the text: (§2) For rabbits the immunization protocol was that described by Martineau^2 and for goats that of Marcus and Grollman^3. The course of the immunization was followed by quantitative precipitin tests on samples of blood withdrawn at various times. The procedures used were all standard to the field of immunology^4.

San Juan rabbits = conditions: six San Juan rabbits, antigen in Freund's complete adjuvant
From the text: as §2

rabbits = assay: Immunization of rabbits with 13, specificity of sera; assay type: in vivo, rabbit; conditions: rabbits immunized with 13
Procedure: as §1

[3] = tested on: antiserum raised against [Le^a -O(CH2)8 CONH]30 -BSA; assay: Maximum precipitation of anti-[Le^a -O(CH2)8 CONH]30 -BSA antiserum against test antigen; assay type: binding, rabbit; conditions: as test antigen against antiserum raised to [Le^a -O(CH2)8 CONH]30 -BSA
Procedure: The above antiserum had been raised against the artificial Lewis-a antigen [Le^a -O(CH2)8 CONH]30 -BSA. The maximum precipitation against [Le^a -O(CH2)8 CONH]28 -HSA as test antigen was 277 μg of antibody per 50 μl of antiserum.

[4] = tested on: human Lewis-a blood group substance; assay: Goat immunization, cross-reaction of antisera with natural substance; assay type: in vivo; conditions: goat immunized with the antigen
From the text: (§3) To further explore the extent of cross reactions between antibodies raised to the artificial Le^a antigens and human Lewis-a blood group substance and to obtain larger amounts of antisera, a goat was immunized with [Le^a -O(CH2)8 CONH]30 -BSA.

[5] = tested on: human blood group Lewis-(a+b-) red cells; assay: Agglutination of red cells by goat antisera to artificial Le^a antigen; assay type: cell-based; conditions: goat antisera after appropriate treatment
From the text: as §3

Lewis (a-) red cells = assay: as above; assay type: cell-based, human; conditions: goat antisera after appropriate treatment
From the text: as §3

[6] = tested on: Rabbit antisera raised to Le^a -BSA antigens; assay: Immunodiffusion of rabbit antisera raised to Le^a -BSA antigens; assay type: binding
[7] = at the concentration that methyl β-D-glcNAc was effective

IC50 [1]: 6.6 mM
Compound: OC[C@H]1OC(O)[C@H](O)[C@@H](O)[C@H]1O (stereo partly drawn) [galactose]

IC50 [1]: 70 mM
Compound: OC[C@H]1O[C@@H](O[C@H]2[C@H](O)[C@@H](O)C(O)O[C@@H]2CO)[C@H](O)[C@@H](O)[C@H]1O (stereo partly drawn) [lactose]

IC50 [1]: 33 mM
Compound: CO[C@H]1O[C@H](CO)[C@H](O)[C@H](O)[C@H]1O [methyl α-D-galactopyranoside]

Compound: CO[C@@H]1O[C@H](CO)[C@H](O)[C@H](O)[C@H]1NC(C)=O [methyl β-D-galNAc]
inhibition of precipitation (antisera raised to 13; [7]): virtually no inhibition

IC50 [1]: 0.83 mM
Compound: CO[C@@H]1O[C@H](CO)[C@H](O)[C@H](O)[C@H]1O [methyl β-D-galactopyranoside]

Compound: CO[C@@H]1O[C@H](CO)[C@@H](O)[C@H](O)[C@H]1NC(C)=O [methyl β-D-glcNAc]
inhibition of precipitation (antisera raised to 13; precipitation between 13 and antisera raised to 13): 60-80%

Compound: CO[C@@H]1O[C@H](CO)[C@@H](O)[C@H](O)[C@H]1O [methyl β-D-glucopyranoside]
inhibition of precipitation [1]: approximately no inhibition | inhibition of precipitation (antisera raised to 13; [7]): virtually no inhibition

Compound: (α-D-gal-O(CH2)8 CONH)17 -BSA
maximum amount of antibody precipitated [2]: 87 µg

Compound: (β-D-gal-O(CH2)8 CONH)24 -BSA [antigen 12]
Antibody levels upon completion of the schedule (average) (San Juan rabbits): 277 μg per 50 μl sera | maximum amount of antibody precipitated [2]: 396 µg

Compound: (β-D-glcNAc-O(CH2)8 CONH)25 -BSA [antigen 13]
specificity of sera from immunized rabbits (rabbits): high specificity for antigens containing the β-D-glcNAc hapten

Compound: [Le^a -O(CH2)8 CONH]28 -HSA
maximum precipitation [3]: 277 μg of antibody per 50 μl of antiserum

Compound: [Le^a -O(CH2)8 CONH]30 -BSA
cross-reaction of antisera with human Lewis-a blood group substance [4]: showed the expected cross-reaction | agglutination by the antisera [5]: effectively agglutinated | agglutination by the antisera (Lewis (a-) red cells): did not agglutinate

Compound: dextran
line of precipitation on immunodiffusion [6]: No line of precipitation

Compound: polylysine
line of precipitation on immunodiffusion [6]: No line of precipitation
